Data as given in patent publication US8324237B2, “Methods for the treatment and prevention of inflammatory diseases” (priority 2005, dated 2012).

Experiments:
[1] = system: female DBA/1 mice, Collagen-Induced Arthritis; experiment: Collagen-Induced Arthritis (CIA) model; format: in vivo; conditions: Day 12; ABC294640 100 mg/kg, ABC747080 50 mg/kg oral
[2] = system: Cox-2 activity (PGE2 production) in human endothelial cells; experiment: TNFα-induced Cox-2 activity (PGE2 ELISA), human endothelial cells; format: cell-based; conditions: 10 μg/mL compound, 100 ng TNFα/mL, 18 hours
[3] = system: male Lewis rats, adjuvant-induced arthritis; experiment: Adjuvant-induced arthritis model; format: in vivo; conditions: 5, 35, 100 mg/kg oral daily, 10 days
Method: FIG. 18. Effects of ABC294640 on disease progression in the adjuvant-induced arthritis model in rats. Male Lewis rats were injected subcutaneously with Mycobacterium butyricum, and symptoms of immune reactivity were present after 2 weeks. Responsive rats were randomized into treatment groups (n=8 per group), and received oral daily doses of: solvent alone (0.375% Tween-80); 100 mg/kg ABC294640; 35 mg/kg ABC294640; or 5 mg/kg ABC294640, or intraperitoneal injections of indomethacin (5 mg/kg) every other day. The severity of disease in each animal was quantified by measurement of the hind paw thickness. Panel A. Time course of hind paw arthritic response. Panel B. Final day (Day 10) hind paw thickness measurements. Panel C. Change in paw thickness of respective group versus non-arthritic rats (naive) at Day 10. *, p<0.05; ***, p<0.001 versus solvent alone group.
Adjuvant-induced arthritis is another widely used assay that recapitulates many features of human rheumatoid arthritis, and so is useful in the evaluation of new drug candidates. Age- and weight-matched male Lewis rats (150-170 g) were injected subcutaneously in the tail with 1 mg of Mycobacterium butyricum (Difco, killed dried) suspended in 0.1 ml of light mineral oil. Symptoms of immune reactivity were present after 2 weeks. […] The severity of disease in each animal was quantified by measurement of the hind paw thickness. […]

[4] = system: female Swiss-Webster mice; conditions: mouse, in vivo
Method: The compounds are soluble to at least 15 mg/ml in 50% dimethylsulfoxide: 50% phosphate-buffered saline (DMSO:PBS) for intraperitoneal (IP) administration or Polyethylene glycol-400 (PEG400) for oral dosing.

NFκB = experiment: TNFα-induced NFκB luciferase reporter assay in fibroblasts; format: cell-based; conditions: TNFα for 6 hours, FIG. 4
Method: FIG. 4. Inhibition of TNFα-induced activation of NFκB by ABC294640. Fibroblasts transfected with a TNFα-responsive promoter linked to luciferase were treated with the indicated concentrations of ABC294640 and then treated with TNFα for 6 hours. The amount of luciferase expressed by the cells was then measured by luminescence. Values represent the mean±sd luciferase activity in triplicate samples in a typical experiment.

[5] = system: Cox-2 activity (PGE2 production) in IEC6 rat intestinal epithelial cells; experiment: TNFα-induced Cox-2 activity (PGE2 ELISA), IEC6 cells; format: cell-based; conditions: 10 μg/mL compound, 100 ng TNFα/mL, 18 hours
[6] = system: endogenous SK in rat IEC6 cells; experiment: Cell-based [3H]sphingosine to [3H]S1P assay of endogenous SK activity, rat IEC6 cells; conditions: FIG. 2A
Method: (§1) FIG. 2. […] Values represent the mean±sd SK activity in triplicate samples in a typical experiment. A cell-based assay in which the phosphorylation of exogenously added [^3H]sphingosine to [^3H]S1P by endogenous SK can be quantified (French et al., Cancer Res 63: 5962 (2003)) was used to evaluate the effects of test compounds on the activity of SK in intact cells. In this assay, cells are incubated with [^3H]sphingosine for an appropriate period of time, and then [^3H]sphingosine and [^3H]S1P (formed by endogenous SK activity) are separated by extraction and levels of both species are determined by scintillation counting. […] For example, human umbilical vein endothelial cells (HUVECs) are commonly used as a model of human vasculature. Additionally, rat IEC6 cells are commonly used as a model of intestinal epithelial cells.

[7] = system: mice, chronic DSS-colitis; experiment: Chronic (35-day) DSS-colitis model of IBD; format: in vivo; conditions: for colon length: Day 35, 50 mg/kg oral daily for 7 days, DSS alone 4.9±0.2, water 7.8±0.3; for serum level of IL-6: at time of sacrifice; for increase in DAI: third DSS exposure, 50 mg/kg oral daily Day 28-35, P<0.001 on Day 35; for colonic levels of pro-inflammatory cytokines TNFα, IL-1β, IFN-γ and IL-6: treated during the final DSS cycle, 50 mg/kg oral
human sphingosine kinase = experiment: Screening assay for inhibitors of SK; format: biochemical; conditions: library screen
Source text: An assay for screening for inhibitors of SK has been established (French et al., Cancer Res 63: 5962 (2003)). […] Representative active compounds from four chemotypes of SK inhibitors, designated herein as Compounds I-IV, are shown in FIG. 1.

[8] = system: ICAM-1 and VCAM-1 in human endothelial cells; experiment: TNFα-induced adhesion molecule expression (Western analysis); format: cell-based; conditions: TNFα 100 ng/mL, 6 hours
Method: Like endothelial cells in the body, HUVECs will proliferate in response to several growth factors, and will respond to inflammatory cytokines such as TNFα and IL-1β. Western analyses were conducted with human endothelial cells to evaluate the effects of the SK inhibitors on signaling proteins known to be regulated by TNFα. […] Cell lysates from treated cells were assayed for the adhesion molecules ICAM-1 and VCAM-1. TNFα caused marked increases in the expression levels of adhesion proteins involved in leukocyte recruitment, including ICAM-1 and VCAM-1.

physchem = conditions: aqueous with cosolvent or surfactant or cyclodextrin
[9] = system: endogenous SK in human umbilical vein endothelial cells (HUVECs); experiment: Cell-based [3H]sphingosine to [3H]S1P assay of endogenous SK activity, HUVECs; conditions: for cellular levels of [3H]S1P: 24 hours treatment, FIG. 3
Method: as §1, with “typical experiment. FIG. 3. […] HUVECs were treated with the indicated concentrations of Compound I, II or V for 24 hours. SK activity was measured by adding [^3H]sphingosine and determining its conversion to [3H]S1P. Values represent the mean±SD of duplicate samples. A cell-based” for “typical experiment. A cell-based”, “epithelial cells. […] Specifically, HUVECs, human chondrocytes (HC), and human synovial cells from a patient with RA (HFLS-RA) were examined.” for “epithelial cells.”

[10] = system: male C57BL/6 mice, DSS-colitis; experiment: Acute DSS-colitis model of IBD; format: in vivo; conditions: 2% DSS, 50 mg/kg oral daily; for Disease Activity Index (DAI): Days 4-6
[11] = system: endogenous SK in human chondrocytes (HC); experiment: Cell-based S1P formation assay, human chondrocytes; conditions: HCs; read-out: drug concentration that decreases S1P formation by 50%
Method: (§2) A cell-based assay in which the phosphorylation of exogenously added [^3H]sphingosine to [^3H]S1P by endogenous SK can be quantified (French et al., Cancer Res 63: 5962 (2003)) was used to evaluate the effects of test compounds on the activity of SK in intact cells. In this assay, cells are incubated with [^3H]sphingosine for an appropriate period of time, and then [^3H]sphingosine and [^3H]S1P (formed by endogenous SK activity) are separated by extraction and levels of both species are determined by scintillation counting. We have used a number of cell lines in this assay to confirm that the SK inhibitors are active in multiple intact cell systems. For example, human umbilical vein endothelial cells (HUVECs) are commonly used as a model of human vasculature. Additionally, rat IEC6 cells are commonly used as a model of intestinal epithelial cells.
(§3) Specifically, HUVECs, human chondrocytes (HC), and human synovial cells from a patient with RA (HFLS-RA) were examined.

[12] = system: HL-60 (human promyelocytic leukemia) cells; experiment: TNFα-induced HL-60 cell proliferation; format: cell-based; conditions: 25 ng TNFα/ml, 72 hours
Method: FIG. 6. Inhibition of TNFα-induced HL-60 cell proliferation by SK inhibitors. HL-60 cells were serum-starved for 18 hours and then left untreated (▴) or treated with 25 ng of TNFα/ml (▾) in the presence of the indicated concentrations of Compound I, II or V. After 72 hours, the number of cells in each treatment group was quantified.
As discussed above, aberrant activation of leukocytes is a central feature of many inflammatory diseases. Because of the roles of S1P in promoting leukocyte proliferation, we examined the effects of several SK inhibitors on the proliferation of HL-60 (human promyelocytic leukemia) cells. […] Compound I was particularly effective, completely blocking the effects of TNFα at concentrations of 0.2 μM or greater.

[13] = system: endogenous SK in human synovial cells from a patient with RA (HFLS-RA); experiment: Cell-based S1P formation assay, HFLS-RA cells; conditions: read-out: drug concentration that decreases S1P formation by 50%
Method: as §2, §3

What does the source list for `O=C(NCc1ccncc1)C12CC3CC(C1)CC(c1ccc(Cl)cc1)(C3)C2` [ABC294640]?
histologic damage of tibiotarsal joints [1]: significantly reduced histologic damage; induction of Cox-2 activity by TNFα (PGE2 production) [2]: strongly suppressed; arthritic response (paw thickness) [3]: inhibited this arthritic response in a dose-dependent manner; dose with no immediate or delayed toxicity ([4]; ip): at least 50 mg/kg; dose without noticeable toxicity ([4]; po): at least 100 mg/kg; activation of NFκB by TNFα (luciferase) (NFκB): dose-dependently suppressed; induction of Cox-2 activity by TNFα (PGE2 production) [5]: strongly suppressed; SK activity ([3H]S1P formation) [6]: dose-dependent suppression of SK activity; SK expression in the colon (immunohistochemistry) ([7]; DSS treated mice): clearly reduced; colon length [7]: 6.2±0.2 cm; serum level of IL-6 [7]: reduced the serum level of IL-6; colonic S1P levels ([7]; oral 50 mg/kg daily, 7 days prior to sacrifice): significant reductions of S1P levels; increase in DAI [7]: significantly suppressed the increase in DAI; colonic levels of pro-inflammatory cytokines TNFα, IL-1β, IFN-γ and IL-6 [7]: reduced levels of the pro-inflammatory cytokines; inhibition of SK (human sphingosine kinase): inhibit SK; TNFα induction of ICAM-1 and VCAM-1 ([8]; 25 μM compound): completely abrogated; TNFα-induced expression of ICAM-1 and VCAM-1 [8]: inhibited; solubility (physchem): ≥ 15 mg/mL; SK activity ([3H]S1P formation) ([9]; human endothelial cells, FIG. 2B): dose-dependent suppression of SK activity; colon length ([10]; Day 6): colons of intermediate length; colonic S1P levels (LC-MS/MS) ([10]; Day 6): markedly lower levels of colonic S1P; histological examination of colon sections ([10]; Day 6): no or mild crypt damage, no or low levels of inflammatory cell infiltration and no edema in the submucosa; increase in colonic myeloperoxidase (MPO) activity ([10]; Day 6): markedly attenuated; Disease Activity Index (DAI) [10]: reduced the intensity of the IBD manifestations

Which results are given for `Oc1ccc(Nc2nc(-c3ccc(Cl)cc3)cs2)cc1` [Compound II]?
IC50 [11]: 360 nM; HL-60 cell proliferation of TNFα-stimulated cells [12]: dose-dependent reductions in HL-60 cell proliferation; cellular levels of [3H]S1P ([9]; HUVECs): dose-dependent reductions in the cellular levels of S1P; IC50 ([9]; HUVECs, read-out: drug concentration that decreases S1P formation by 50%): 200 nM; IC50 [13]: 190 nM

With `O=C(O)c1cc(/N=N/c2ccc(O)c(C(=O)O)c2)ccc1O` [Dipentum, reference compound] as the molecule, how does the colon length [7] read?
Its colon length is 6.1±0.2 cm.

And the “serum level of IL-6” value [7]?
The value was “reduced the serum level of IL-6”.

And the “increase in DAI” value [7]?
The value was “significantly suppressed the increase in DAI”.

And the “colonic levels of pro-inflammatory cytokines TNFα, IL-1β, IFN-γ and IL-6” value [7]?
The value was “cytokine profiles equivalent to the DSS-alone group”.

What about the “colon Histology Score” value ([10]; Day 6) of the same molecule?
The value was “consistently lower than the DSS-alone animals”.

What about the colon length ([10]; Day 6) of the same molecule?
The colon length was “colons of intermediate length”.

What about the “elevations of colonic pro-inflammatory proteins IFN-γ, IL-1β, IL-6 and TNFα” value ([10]; Day 6) of the same molecule?
Its value is “attenuated”.

What about the “increase in colonic myeloperoxidase (MPO) activity” value ([10]; Day 6) of the same molecule?
The value was “markedly attenuated”.

What about the “Disease Activity Index (DAI)” value [10] of the same molecule?
The value was “reduced the intensity of the IBD manifestations”.

Which results are given for `O=C1C(=Cc2ccc(O)c(O)c2)Oc2ccccc21` [V]?
HL-60 cell proliferation of TNFα-stimulated cells [12]: dose-dependent reductions in HL-60 cell proliferation; cellular levels of [3H]S1P ([9]; HUVECs): dose-dependent reductions in the cellular levels of S1P
